Values quoted from earlier work in US20130085177A1, “COSMETIC COMPOSITION BASED ON ELLAGIC ACID OR A DERIVATIVE THEREOF AND ON A PARTICULAR MIXTURE OF SURFACTANTS” (priority 2010, published 2013).

- solubility in water and in the solvents and oils commonly used in cosmetic compositions: very low
SMILES: O=c1oc2c(O)c(O)cc3c(=O)oc4c(O)c(O)cc1c4c23 [ellagic acid, 2,3,7,8-tetrahydroxy(1)benzo-pyrano(5,4,3-cde)(1)benzopyran-5,10-dione]
